Source: publication PMC6767204, “Synthesis and Biological Evaluation of Disubstituted Pyrimidines as Selective 5-HT2C Agonists” (Molecules, 2019)
Where a name gives a salt, the structure may show the parent alone. Read-outs that look alike come from different tables or passages of the source. One block for each compound: values may come before it.

How the values were obtained:
5-HT2C receptor [1] = molecular target: T1, 5-HT2C receptor (Homo sapiens, UniProt P28335); assay: 5-HT2C receptor cell-based functional assay (agonist mode, fluorescence-based); settings: for %activation: Table 2, serotonin as reference compound
T1 sequence (P28335 33-458): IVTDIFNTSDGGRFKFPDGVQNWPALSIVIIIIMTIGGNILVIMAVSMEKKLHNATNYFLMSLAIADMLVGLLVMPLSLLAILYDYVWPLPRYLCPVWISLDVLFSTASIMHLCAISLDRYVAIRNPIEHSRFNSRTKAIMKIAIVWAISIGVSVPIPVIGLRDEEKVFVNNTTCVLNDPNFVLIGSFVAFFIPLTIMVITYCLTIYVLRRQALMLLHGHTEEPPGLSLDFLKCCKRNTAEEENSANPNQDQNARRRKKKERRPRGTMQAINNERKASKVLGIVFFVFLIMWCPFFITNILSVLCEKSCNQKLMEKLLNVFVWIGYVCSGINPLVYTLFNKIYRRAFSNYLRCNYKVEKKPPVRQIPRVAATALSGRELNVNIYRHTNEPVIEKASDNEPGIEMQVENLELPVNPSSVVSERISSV
Method: The synthesized compounds were tested in agonist mode with the 5-HT2C receptor assay using recombinant human HEK-293 cells serviced by either Eurofins Cerep or DGMIF (Daegu-Gyeongbuk Medical Innovation Foundation). All the experiments were duplicated.

5-HT2C receptor [2] = molecular target: T1, 5-HT2C receptor; assay: 5-HT receptor radioligand binding affinity assay, 2C; parameters: expressed in transfected cells
Method: (§1) Eleven dilutions (5 x assay concentration) of the test and reference compounds (Table S1) were prepared in standard binding buffer (50 mM tris(hydroxymethyl)-aminomethane–HCl (Tris-HCl), 10 mM MgCl2, 1 mM ethylenediaminetetraacetate (EDTA), pH 7.4) by serial dilution: 0.05 nM, 0.5 nM, 1.5 nM, 5 nM, 15 nM, 50 nM, 150 nM, 500 nM, 1.5 μM, 5 μM, and 50 μM. The radioligand (Table S1) was diluted to five times the assay concentration in standard binding buffer. Aliquots (50 μL) of the radioligand were dispensed into the wells of a 96-well plate containing 100 μL of standard binding buffer. Triplicate aliquots (50 μL) of the test and reference compound dilutions were then added. Finally, crude membrane fractions (50 μL) of cells (HEK293 or CHO) expressing human recombinant receptors were dispensed into each well. A total 250 μL of the reaction mixtures was incubated at room temperature and shielded from light for 1.5 h, then harvested by rapid filtration onto Whatman GF/B glass fiber filters presoaked with 0.3% polyethyleneimine, by using a 96-well Brandel harvester.
(§2) Four rapid washes were performed with chilled standard binding buffer (500 μL) to decrease nonspecific binding. Filters were placed in 6 mL scintillation tubes and allowed to dry overnight. The next day, 4 ml of EcoScint scintillation cocktail (National Diagnostics) was added to each tube. The tubes were capped, labeled, and counted by liquid scintillation counting. The filter mats were dried, and the scintillant was melted onto the filters, then the radioactivity retained on the filters was counted in a Microbeta scintillation counter. The IC50 values were obtained by using the Prism 4.0 program (GraphPad Software, San Diego, CA) and converted into Ki values. Each compound was tested in triplicate at least.
(§3) 3. Radioligands and reference compounds for binding assay
(§4) Table S1. A list of 5-HT receptor radioligands and reference compounds for binding assay.
(§5) Receptor subtype Radioligand Reference compound
(§6) 1A [3H]8-OH-DPAT Methysergide
(§7) 2A [3H]Ketanserin Chlorpromazine
(§8) 2C [3H]Mesulergine Chlorpromazine

5-HT3 receptor = molecular target: T2, 5-HT3 receptor (Homo sapiens, UniProt P46098); assay: 5-HT receptor radioligand binding affinity assay, 3
T2 construct: expressed in transfected cells; host or cells: HEK293 or CHO
T2 sequence (P46098 24-478): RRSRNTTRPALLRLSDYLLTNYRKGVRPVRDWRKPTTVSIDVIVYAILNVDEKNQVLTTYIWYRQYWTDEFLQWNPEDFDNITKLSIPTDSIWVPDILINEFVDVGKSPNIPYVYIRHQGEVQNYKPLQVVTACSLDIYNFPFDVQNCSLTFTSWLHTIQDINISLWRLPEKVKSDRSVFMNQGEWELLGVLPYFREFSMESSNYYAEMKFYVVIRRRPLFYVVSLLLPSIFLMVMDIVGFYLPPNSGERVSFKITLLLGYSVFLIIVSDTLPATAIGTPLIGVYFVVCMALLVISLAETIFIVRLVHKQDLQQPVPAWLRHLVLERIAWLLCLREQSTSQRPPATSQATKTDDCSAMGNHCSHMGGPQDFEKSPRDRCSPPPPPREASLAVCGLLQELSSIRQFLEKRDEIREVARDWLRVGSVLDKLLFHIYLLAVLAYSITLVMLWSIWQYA
Method: as §1, §2, §3, §4, §5, §6, §7, §8

5-HT5A receptor = molecular target: T3, 5-HT5A receptor (Homo sapiens, UniProt P47898); assay: 5-HT receptor radioligand binding affinity assay, 5A
T3 construct: expressed in transfected cells; host or cells: HEK293 or CHO
Method: as §1, §2, §3
(§9) Table S1. A list of 5-HT receptor radioligands and reference compounds for binding assay. […]

5-HT2B receptor = molecular target: T4, 5-HT2B receptor (Homo sapiens, UniProt P41595); assay: 5-HT receptor radioligand binding affinity assay, 2B
T4 construct: expressed in transfected cells; host or cells: HEK293 or CHO
Method: as §1, §2, §3, §4, §5, §6, §7, §8

5-HT1B receptor = molecular target: T5, 5-HT1B receptor (Homo sapiens, UniProt P28222); assay: 5-HT receptor radioligand binding affinity assay, 1B; settings: 10 μM
T5 construct: expressed in transfected cells; host or cells: HEK293 or CHO

5-HT6 receptor = molecular target: T6, 5-HT6 receptor (Homo sapiens, UniProt P50406); assay: 5-HT receptor radioligand binding affinity assay, 6
T6 construct: expressed in transfected cells; host or cells: HEK293 or CHO
Method: as §1, §2, §3, §4, §5, §6, §7, §8

5-HT1E receptor = molecular target: T7, 5-HT1E receptor (Homo sapiens, UniProt P28566); assay: 5-HT receptor radioligand binding affinity assay, 1E
T7 construct: expressed in transfected cells; host or cells: HEK293 or CHO
Method: as §1, §2, §3, §9

5-HT2A receptor = molecular target: T8, 5-HT2A receptor (Homo sapiens, UniProt P28223); assay: 5-HT receptor radioligand binding affinity assay, 2A
T8 construct: expressed in transfected cells; host or cells: HEK293 or CHO
Method: as §1, §2, §3, §4, §5, §6, §7, §8

5-HT1D receptor = molecular target: T9, 5-HT1D receptor (Homo sapiens, UniProt P28221); assay: 5-HT receptor radioligand binding affinity assay, 1D
T9 construct: expressed in transfected cells; host or cells: HEK293 or CHO
Method: as §1, §2, §3, §4, §5, §6, §7, §8

5-HT7 receptor = molecular target: T10, 5-HT7 receptor (Homo sapiens, UniProt P34969); assay: 5-HT receptor radioligand binding affinity assay, 7
T10 construct: expressed in transfected cells; host or cells: HEK293 or CHO
Method: as §1, §2, §3, §4, §5, §6, §7, §8

5-HT1A receptor = molecular target: T11, 5-HT1A receptor (Homo sapiens, UniProt P08908); assay: 5-HT receptor radioligand binding affinity assay, 1A
T11 construct: expressed in transfected cells; host or cells: HEK293 or CHO
T11 sequence (P08908 1-422): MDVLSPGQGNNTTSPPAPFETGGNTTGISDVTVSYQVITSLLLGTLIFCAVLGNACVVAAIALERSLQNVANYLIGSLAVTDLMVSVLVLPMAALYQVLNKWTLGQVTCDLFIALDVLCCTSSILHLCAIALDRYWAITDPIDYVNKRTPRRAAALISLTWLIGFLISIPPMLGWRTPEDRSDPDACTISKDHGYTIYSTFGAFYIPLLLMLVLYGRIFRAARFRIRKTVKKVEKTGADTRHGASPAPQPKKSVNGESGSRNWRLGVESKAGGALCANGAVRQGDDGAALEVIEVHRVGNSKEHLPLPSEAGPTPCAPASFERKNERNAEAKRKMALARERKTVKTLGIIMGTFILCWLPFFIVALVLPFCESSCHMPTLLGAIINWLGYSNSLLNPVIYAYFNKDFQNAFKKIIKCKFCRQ
Method: as §1, §2, §3, §4, §5, §6, §7, §8

[3] = HEK293, read-out: %activation (10 μM)
[4] = HEK293, read-out: %activation (10 μM), 10 μM, recombinant human HEK-293 cells, Table 1
[5] = subtype Ki divided by 5-HT2C Ki

T8 sequence (P28223 whole entry): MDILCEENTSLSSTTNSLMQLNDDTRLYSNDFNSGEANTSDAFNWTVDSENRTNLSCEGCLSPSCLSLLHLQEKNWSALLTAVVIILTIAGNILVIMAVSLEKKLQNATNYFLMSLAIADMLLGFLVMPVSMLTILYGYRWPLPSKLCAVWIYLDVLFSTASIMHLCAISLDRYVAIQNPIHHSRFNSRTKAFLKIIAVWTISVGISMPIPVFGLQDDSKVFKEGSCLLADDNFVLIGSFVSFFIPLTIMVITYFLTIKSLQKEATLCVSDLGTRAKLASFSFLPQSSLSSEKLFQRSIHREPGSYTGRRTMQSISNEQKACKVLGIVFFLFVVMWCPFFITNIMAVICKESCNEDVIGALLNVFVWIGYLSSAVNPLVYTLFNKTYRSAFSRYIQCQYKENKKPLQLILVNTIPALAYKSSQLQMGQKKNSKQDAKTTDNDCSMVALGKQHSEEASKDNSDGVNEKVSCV
T6 sequence (P50406 whole entry): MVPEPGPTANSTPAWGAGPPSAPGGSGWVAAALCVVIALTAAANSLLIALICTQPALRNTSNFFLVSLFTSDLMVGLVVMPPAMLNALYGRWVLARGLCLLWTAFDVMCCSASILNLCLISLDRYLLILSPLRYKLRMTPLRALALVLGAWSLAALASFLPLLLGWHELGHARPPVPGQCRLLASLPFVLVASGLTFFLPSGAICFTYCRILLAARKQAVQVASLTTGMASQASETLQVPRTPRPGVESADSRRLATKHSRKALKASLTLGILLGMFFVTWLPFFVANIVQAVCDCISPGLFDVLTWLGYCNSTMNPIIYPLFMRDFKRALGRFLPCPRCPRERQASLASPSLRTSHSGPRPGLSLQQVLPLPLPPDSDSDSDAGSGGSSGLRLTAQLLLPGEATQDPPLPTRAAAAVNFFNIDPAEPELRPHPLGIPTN
T10 sequence (P34969 whole entry): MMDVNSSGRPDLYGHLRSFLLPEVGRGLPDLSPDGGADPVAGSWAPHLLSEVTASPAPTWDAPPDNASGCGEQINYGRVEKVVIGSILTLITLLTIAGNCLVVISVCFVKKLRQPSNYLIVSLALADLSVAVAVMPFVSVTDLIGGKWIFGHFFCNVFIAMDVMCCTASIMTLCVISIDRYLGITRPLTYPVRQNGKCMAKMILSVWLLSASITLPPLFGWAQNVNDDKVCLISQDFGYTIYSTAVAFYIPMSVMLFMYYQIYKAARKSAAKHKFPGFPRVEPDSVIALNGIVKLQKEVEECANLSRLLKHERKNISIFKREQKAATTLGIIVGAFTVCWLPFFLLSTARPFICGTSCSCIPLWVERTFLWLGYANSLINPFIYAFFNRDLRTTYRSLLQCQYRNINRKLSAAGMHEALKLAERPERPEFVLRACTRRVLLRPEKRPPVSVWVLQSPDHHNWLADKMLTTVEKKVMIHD
T9 sequence (P28221 whole entry): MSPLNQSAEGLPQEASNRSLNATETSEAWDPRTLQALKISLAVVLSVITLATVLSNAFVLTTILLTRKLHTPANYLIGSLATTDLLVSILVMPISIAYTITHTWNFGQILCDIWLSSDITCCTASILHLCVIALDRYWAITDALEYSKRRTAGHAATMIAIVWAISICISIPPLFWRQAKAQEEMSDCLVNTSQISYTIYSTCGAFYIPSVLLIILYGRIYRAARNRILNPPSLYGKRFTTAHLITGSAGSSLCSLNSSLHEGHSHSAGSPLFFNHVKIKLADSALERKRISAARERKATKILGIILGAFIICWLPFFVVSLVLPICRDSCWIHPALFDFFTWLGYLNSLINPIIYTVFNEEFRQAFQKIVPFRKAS
T4 sequence (P41595 whole entry): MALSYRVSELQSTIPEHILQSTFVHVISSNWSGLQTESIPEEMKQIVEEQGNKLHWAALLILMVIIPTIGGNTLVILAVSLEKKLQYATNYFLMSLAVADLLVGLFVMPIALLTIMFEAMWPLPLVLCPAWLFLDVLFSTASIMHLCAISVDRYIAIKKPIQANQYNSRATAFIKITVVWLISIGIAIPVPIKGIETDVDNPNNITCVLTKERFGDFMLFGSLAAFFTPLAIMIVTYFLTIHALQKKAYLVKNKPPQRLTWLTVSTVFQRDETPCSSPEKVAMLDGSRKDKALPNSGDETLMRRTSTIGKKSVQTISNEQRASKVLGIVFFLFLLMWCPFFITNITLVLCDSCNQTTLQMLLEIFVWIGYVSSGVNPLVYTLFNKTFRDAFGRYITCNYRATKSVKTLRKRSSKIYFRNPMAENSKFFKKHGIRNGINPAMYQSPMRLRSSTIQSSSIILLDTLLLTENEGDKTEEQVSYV
T5 sequence (P28222 whole entry): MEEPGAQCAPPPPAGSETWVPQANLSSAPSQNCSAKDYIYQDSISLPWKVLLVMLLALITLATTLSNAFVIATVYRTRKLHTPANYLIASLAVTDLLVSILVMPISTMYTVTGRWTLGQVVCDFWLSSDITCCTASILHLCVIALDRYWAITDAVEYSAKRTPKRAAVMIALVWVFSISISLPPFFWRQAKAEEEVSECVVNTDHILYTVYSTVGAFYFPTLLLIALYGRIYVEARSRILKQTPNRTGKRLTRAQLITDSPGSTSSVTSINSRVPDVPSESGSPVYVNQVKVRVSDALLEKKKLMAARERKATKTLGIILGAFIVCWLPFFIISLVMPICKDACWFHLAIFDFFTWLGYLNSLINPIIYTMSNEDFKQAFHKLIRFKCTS
T3 sequence (P47898 whole entry): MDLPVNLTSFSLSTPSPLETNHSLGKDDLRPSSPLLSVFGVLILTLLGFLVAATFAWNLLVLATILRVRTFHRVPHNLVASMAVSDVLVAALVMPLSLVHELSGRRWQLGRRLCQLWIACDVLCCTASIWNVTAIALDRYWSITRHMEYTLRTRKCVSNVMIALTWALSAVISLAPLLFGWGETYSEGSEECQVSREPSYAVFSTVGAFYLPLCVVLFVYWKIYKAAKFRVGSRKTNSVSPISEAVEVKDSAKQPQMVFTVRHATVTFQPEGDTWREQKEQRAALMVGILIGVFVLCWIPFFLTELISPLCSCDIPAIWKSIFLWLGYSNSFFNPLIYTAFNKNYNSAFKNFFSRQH
T7 sequence (P28566 whole entry): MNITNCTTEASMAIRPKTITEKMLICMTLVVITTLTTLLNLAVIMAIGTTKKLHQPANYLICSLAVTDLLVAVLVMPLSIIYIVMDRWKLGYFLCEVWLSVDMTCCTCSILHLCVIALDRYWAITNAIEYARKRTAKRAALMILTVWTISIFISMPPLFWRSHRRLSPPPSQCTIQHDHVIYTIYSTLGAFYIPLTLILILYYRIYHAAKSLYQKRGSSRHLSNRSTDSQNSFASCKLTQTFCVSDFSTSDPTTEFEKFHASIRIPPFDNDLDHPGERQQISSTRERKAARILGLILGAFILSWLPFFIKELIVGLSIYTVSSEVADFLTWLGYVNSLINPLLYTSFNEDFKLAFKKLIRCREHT

SMILES: C[C@@H]1CNCCN1c1ncc(Oc2cccc(F)c2)cn1 [9g]
activation at 10 µM (5-HT2C receptor [1]; [3]): 35%

SMILES: Fc1cccc(COc2cnc(N3CCNCC3)nc2)c1 [9b, 4-(5-((3-fluorobenzyl)oxy)pyrimidin-2-yl)piperazin-1-ium∙hydrochloride]
activation at 10 µM (5-HT2C receptor [1]; [4]): > 50%

SMILES: Fc1ccc(CCOc2cnc(N3CCNCC3)nc2)cc1 [9f]
activation at 10 µM (5-HT2C receptor [1]; [4]): 4%

SMILES: Fc1ccc(COc2cnc(N3CCCNCC3)nc2)cc1 [9q, 4-(5-((4-fluorobenzyl)oxy)pyrimidin-2-yl)-1,4-diazepan-1-ium∙hydrochloride]
activation at 10 µM (5-HT2C receptor [1]; [3]): 16%

SMILES: Fc1ccc(Oc2cnc(N3CCCNCC3)nc2)cc1 [9p]
activation at 10 µM (5-HT2C receptor [1]; [3]): 14%

SMILES: Fc1cccc(Oc2cnc(N3CCNCC3)nc2)c1 [9a]
activation at 10 µM (5-HT2C receptor [1]; [4]): 7%

SMILES: Fc1cccc(CCOc2cnc(N3CCNCC3)nc2)c1 [9c]
activation at 10 µM (5-HT2C receptor [1]; [4]): 15%

SMILES: C[C@@H](Oc1nc(N2CCCNCC2)ncc1F)c1ccc(F)cc1 [10f, (R)-1-(5-fluoro-4-(1-(4-fluorophenyl)ethoxy)pyrimidin-2-yl)-1,4-diazepane]
Ki (5-HT3 receptor): 415 nM
%Binding at 10 μM, 3 (5-HT3 receptor; 10 μM): 88.0%
SI, selectivity index, 3 (5-HT3 receptor; [5]): 21.8
%Binding at 10 μM, 5A (5-HT5A receptor): 15.2 /ND %
Ki (5-HT2B receptor): 118 nM
%Binding at 10 μM, 2B (5-HT2B receptor; 10 μM): 95.0%
SI, selectivity index, 2B (5-HT2B receptor; [5]): 6.2
%Binding at 10 μM, 1B (5-HT1B receptor): 19.2 /ND^b %
Ki (5-HT6 receptor): 467 nM
%Binding at 10 μM, 6 (5-HT6 receptor; 10 μM): 56.5%
SI, selectivity index, 6 (5-HT6 receptor; [5]): 24.6
%Binding at 10 μM, 1E (5-HT1E receptor): 31.3 /ND^b %
%binding (5-HT2C receptor [2]; Table 2): 93.9%
Ki (5-HT2C receptor [2]; Table 2): 19 nM
SI, selectivity index, 2C (5-HT2C receptor [2]; [5]): 1.0
Ki (5-HT2A receptor): 2860 nM
%Binding at 10 μM, 2A (5-HT2A receptor; 10 μM): 52.9%
SI, selectivity index, 2A (5-HT2A receptor; [5]): 150.7
%activation (5-HT2C receptor [1]): 52.4%
Ki (5-HT1D receptor): 937 nM
%Binding at 10 μM, 1D (5-HT1D receptor; 10 μM): 81.3%
SI, selectivity index, 1D (5-HT1D receptor; [5]): 49.3
Ki (5-HT7 receptor): 616 nM
%Binding at 10 μM, 7 (5-HT7 receptor; 10 μM): 55.4%
SI, selectivity index, 7 (5-HT7 receptor; [5]): 32.4
Ki (5-HT1A receptor): 1070 nM
%Binding at 10 μM, 1A (5-HT1A receptor; 10 μM): 67.6%
SI, selectivity index, 1A (5-HT1A receptor; [5]): 56.1

SMILES: C[C@@H]1CNCCN1c1ncc(OCc2cccc(F)c2)cn1 [9h, (R)-4-(5-((3-fluorobenzyl)oxy)pyrimidin-2-yl)-3-methylpiperazine-1-ium∙hydrochloride]
activation at 10 µM (5-HT2C receptor [1]; [3]): 48%

SMILES: C[C@@H]1CNCCN1c1ncc(OCCc2ccc(F)cc2)cn1 [9l]
activation at 10 µM (5-HT2C receptor [1]; [3]): 32%

Continued, values first:

Ki (5-HT2C receptor [2]; Table 2): 1260 nM
%activation (5-HT2C receptor [1]): 7.7%
SMILES: C[C@@H](Oc1nc(N[C@H]2CCNC2)ncc1F)c1cccc(F)c1 [10e, 5-fluoro-4-((R)-1-(3-fluorophenyl)ethoxy)-N-((S)-pyrrolidin-3-yl)pyrimidin-2-amine]

Ki (5-HT2C receptor [2]; Table 2): 295 nM
%activation (5-HT2C receptor [1]): 29.5%
SMILES: C[C@@H](Oc1nc(N2C[C@H]3CNC[C@H]3C2)ncc1F)c1cccc(F)c1 [10c, (3aR,6aS)-2-(5-fluoro-4-((R)-1-(3-fluorophenyl)ethoxy)pyrimidin-2-yl)octahydropyrrolo[3,4-c]pyrrole]

Ki (5-HT2C receptor [2]; Table 2): 119 nM
%activation (5-HT2C receptor [1]): 16.4%
SMILES: C[C@@H](Oc1nc(N[C@@H]2CCNC2)ncc1F)c1cccc(F)c1 [10d, 5-fluoro-4-((R)-1-(3-fluorophenyl)ethoxy)-N-((R)-pyrrolidin-3-yl)pyrimidin-2-amine]

Ki (5-HT2C receptor [2]; Table 2): 466 nM
%activation (5-HT2C receptor [1]): 10.1%
SMILES: C[C@@H](Oc1nc(N2C[C@H]3CNC[C@H]3C2)ncc1F)c1ccc(F)cc1 [10h, (3aR,6aS)-2-(5-fluoro-4-((R)-1-(4-fluorophenyl)ethoxy)pyrimidin-2-yl)octahydropyrrolo[3,4-c]pyrrole]
